# Source: ChEMBL document CHEMBL3045375, “Synthesis, characterization and biological activity of some new carbostyril bearing 1H-pyrazole moiety” (2012)
# Tests used:
# Assay type in all cases: functional
# Candida albicans = assay: Antifungal activity against Candida albicans MTCC 227 after 48 hr by broth microdilution method
# Aspergillus fumigatus = assay: Antifungal activity against Aspergillus fumigatus MTCC 3008 after 48 hr by broth microdilution method
# Streptococcus pneumoniae = assay: Antibacterial activity against Streptococcus pneumoniae MTCC 1936 after 24 hr by broth microdilution method; settings: MTCC 1936, 24 h
# Escherichia coli = assay: Antibacterial activity against Escherichia coli MTCC 443 after 24 hr by broth microdilution method; settings: MTCC 443, 24 h
# Bacillus subtilis = assay: Antibacterial activity against Bacillus subtilis MTCC 441 after 24 hr by broth microdilution method
Compound,MIC (Candida albicans) [µg/mL],MIC (Aspergillus fumigatus) [µg/mL],MIC (Streptococcus pneumoniae) [µg/mL],MIC (Escherichia coli) [µg/mL],"MIC (Bacillus subtilis; MTCC 441, 24 h) [µg/mL]","MIC (Candida albicans; MTCC 227, 48 h) [µg/mL]","MIC (Aspergillus fumigatus; MTCC 3008, 48 h) [µg/mL]",MIC (Bacillus subtilis) [µg/mL]
NYSTATIN,100,100,–,–,–,–,–,–
COc1ccc(-c2nn(-c3ccccc3)cc2C2CC(=O)N(c3ccc(F)cc3)C3=C2C(=O)CC(C)(C)C3)cc1 (centres undefined),–,–,100,250,0.2,1000,1000,–
CC1(C)S[C@@H]2[C@H](NC(=O)[C@H](N)c3ccccc3)C(=O)N2[C@H]1C(=O)O [AMPICILLIN],–,–,100,100,0.25,–,–,–
CC1(C)CC(=O)C2=C(C1)N(c1ccc(F)cc1)C(=O)CC2c1cn(-c2ccccc2)nc1-c1ccc(Cl)cc1 (centres undefined),–,–,250,50,0.15,1000,500,–
CC1(C)CC(=O)C2=C(C1)N(c1ccc(F)cc1)C(=O)CC2c1cn(-c2ccccc2)nc1-c1ccc(Br)cc1 (centres undefined),–,–,250,500,0.5,100,100,–
O=C1CCCC2=C1C(c1cn(-c3ccccc3)nc1-c1ccc(F)cc1)CC(=O)N2c1ccc(F)cc1 (centres undefined),–,–,200,250,0.1,500,1000,–
CC1(C)CC(=O)C2=C(C1)N(c1ccc(F)cc1)C(=O)CC2c1cn(-c2ccccc2)nc1-c1ccc([N+](=O)[O-])cc1 (centres undefined),–,–,250,100,0.25,1000,1000,–
COC1=CC(=O)C[C@@H](C)[C@]12Oc1c(Cl)c(OC)cc(OC)c1C2=O [GRISEOFULVIN],–,–,–,–,–,500,100,–
O=C1CCCC2=C1C(c1cn(-c3ccccc3)nc1-c1cccs1)CC(=O)N2c1ccc(F)cc1 (centres undefined),–,–,200,100,0.25,500,1000,–
O=C1CCCC2=C1C(c1cn(-c3ccccc3)nc1-c1ccccc1)CC(=O)N2c1ccc(F)cc1 (centres undefined),–,–,500,500,0.5,> 1000,> 1000,–
CC1(C)CC(=O)C2=C(C1)N(c1ccc(F)cc1)C(=O)CC2c1cn(-c2ccccc2)nc1-c1cccs1 (centres undefined),–,–,500,200,0.25,500,1000,–
O=C1CCCC2=C1C(c1cn(-c3ccccc3)nc1-c1ccc(Cl)cc1)CC(=O)N2c1ccc(F)cc1 (centres undefined),–,–,250,100,0.25,500,> 1000,–
CC1(C)CC(=O)C2=C(C1)N(c1ccc(F)cc1)C(=O)CC2c1cn(-c2ccccc2)nc1-c1ccc(F)cc1 (centres undefined),–,–,500,150,0.5,500,1000,–
COc1ccc(-c2nn(-c3ccccc3)cc2C2CC(=O)N(c3ccc(F)cc3)C3=C2C(=O)CCC3)cc1 (centres undefined),–,–,250,100,0.5,1000,500,–
GENTAMICIN,–,–,–,–,–,–,–,0.001
O=C(N[C@H](CO)[C@H](O)c1ccc([N+](=O)[O-])cc1)C(Cl)Cl [CHLORAMPHENICOL],–,–,50,50,0.05,–,–,–
Cc1ccc(-c2nn(-c3ccccc3)cc2C2CC(=O)N(c3ccc(F)cc3)C3=C2C(=O)CCC3)cc1 (centres undefined),–,–,100,250,0.25,1000,500,–
Cc1ccc(-c2nn(-c3ccccc3)cc2C2CC(=O)N(c3ccc(F)cc3)C3=C2C(=O)CC(C)(C)C3)cc1 (centres undefined),–,–,100,500,0.5,500,500,–
O=C1CCCC2=C1C(c1cn(-c3ccccc3)nc1-c1ccc(Br)cc1)CC(=O)N2c1ccc(F)cc1 (centres undefined),–,–,250,62.5,0.5,500,> 1000,–
CC1(C)CC(=O)C2=C(C1)N(c1ccc(F)cc1)C(=O)CC2c1cn(-c2ccccc2)nc1-c1ccccc1 (centres undefined),–,–,150,500,0.2,500,500,–
O=C1CCCC2=C1C(c1cn(-c3ccccc3)nc1-c1ccc([N+](=O)[O-])cc1)CC(=O)N2c1ccc(F)cc1 (centres undefined),–,–,100,62.5,0.2,500,1000,–
O=C(O)c1cn(C2CC2)c2cc(N3CCNCC3)c(F)cc2c1=O [CIPROFLOXACIN],–,–,50,25,0.05,–,–,–
